Test systems include BT-549; SNB-78; LXFL 529; KM-20L2; XF498; DLD-1; M19-MEL; HOP-18.
Common to all, as to assay: growth of human tumour cells (NCI), 48 h

SMILES strings stand for the structures. Structures can show the parent of a compound that is named as a salt.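 A five-concentration, 48-hour dose response in 96-well plates underlies each endpoint, interpolated linearly between surrounding concentrations. GI50 is the concentration that inhibits growth by half.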 Calls of active or inactive are those of the source. Cut-off read from the data, not from the text of the source: active = GI50 up to about 1.1 µM and inactive = higher.

`c1ccc2c3c(c(N4CCOCC4)nc2c1)CCCC3`: in the test on BT-549, the GI50 is 39.7 µM (inactive).
`COc1ccc2nc(C)cc(NCCCCCCCCCNc3cc(C)nc4ccc(OC)cc34)c2c1`: the GI50 with SNB-78 is 1.8 µM (inactive); with LXFL 529, 1.17 µM (inactive); in the test on KM-20L2, 0.946 µM (active); with XF498, 2.21 µM (inactive); in the test with DLD-1 it was 2.31 µM (inactive); in the test with M19-MEL, 14.6 µM (inactive). Moreover, the GI50 in the test with BT-549 is 8.95 µM (inactive).
`Cc1cccc2c(=O)c([Se]c3coc4c(C)cccc4c3=O)coc12`: the GI50 was 16.3 µM (inactive) in the test with SNB-78; 19 µM (inactive) with HOP-18; 14.6 µM (inactive) in the test with LXFL 529; 21.5 µM (inactive) in the test on KM-20L2; 19.7 µM (inactive) in the test with XF498; 20.8 µM (inactive) with DLD-1. In the test on M19-MEL, the GI50 was 16.5 µM (inactive).
Regarding `Cc1cc(-c2cscn2)c(O)c([N+](=O)[O-])c1`, in the test with BT-549, the GI50 was 77.6 µM (inactive).
Turning to `O=C(O)CC[N+]1=CCC(c2ccccc2)(c2ccccc2)O1`, the GI50 in the test on BT-549 was > 100 µM (inactive).
Same read-out and setting: as for `C=C1CC(COc2ccc3c(C)c(Cl)c(=O)oc3c2)(c2ccccc2)OC1=O` (stereo not drawn), the figure is 1.53 µM (inactive); as for `CC(C)(C)/N=C1\C(=O)C2(C)CCC1C2(C)C` (stereo not drawn), > 100 µM (inactive).
With `N=C(N)NS(=O)(=O)c1ccc(Nc2c3ccccc3nc3c(C(=O)N4CCN(CCO)CC4)cccc23)cc1`, the GI50 in the test with SNB-78, in the test on HOP-18, with LXFL 529, with KM-20L2, with XF498 and in the test on DLD-1 was > 100 µM (inactive) throughout. Moreover, the GI50 in the test with M19-MEL is > 100 µM (inactive).
For the compound `Nc1nc(Cl)cc(NCC2(CO)CC(O)C2)n1` (stereo not drawn), the GI50 in the test on BT-549 is > 100 µM (inactive).
Turning to `CCOC(=O)c1ccc(-n2cnc(-c3ccc([N+](=O)[O-])cc3)c2)cc1`, the GI50 in the test with BT-549 was 36.5 µM (inactive).
On the same count and under the same terms, as for `O=C(c1ccc(Cl)cc1Cl)N(Cc1cccnc1)C(=S)N(Cc1cccnc1)C(=O)c1ccc(Cl)cc1Cl`, the figure is 3.72 µM (inactive); as for `C[n+]1c(-c2ccc(/C=C/C=N\NC(=O)c3ccc(C(=O)N/N=C\C=C\c4ccc(-c5cn6ccccc6[n+]5C)cc4)cc3)cc2)cn2ccccc21`, 38.2 µM (inactive).
`Cc1ccc(S(=O)(=O)c2c(N)c3nccn3c3nc4ccccc4nc23)cc1`: the GI50 in the test with SNB-78 is 53.5 µM (inactive); with LXFL 529, > 100 µM (inactive); with KM-20L2, > 100 µM (inactive); with XF498 it was 41.8 µM (inactive); in the test with DLD-1 it was > 100 µM (inactive); in the test on M19-MEL, > 100 µM (inactive).
`CN(C)c1ccc(C=c2c3ccccc3n3c2c2c([n+]3C)CCCC2)cc1`: the GI50 with BT-549 was 0.186 µM (active).
Still for that read-out and setting: the value for `COC(=O)C1=C(C)NC(C)=C([N+](=O)[O-])C1c1cccc(N=O)c1` (stereo not drawn) was 16.7 µM (inactive); that for `O=C(O[C@H]1[C@@H](O)[C@H](n2cnc3c(Cl)ncnc32)O[C@@H]1COC(c1ccccc1)(c1ccccc1)c1ccccc1)c1ccccc1` was 18.2 µM (inactive); that for `CCOC(=O)c1ccc2c(c1)nc1n2C(c2c(F)cccc2F)SC1` (stereo not drawn) was 80.5 µM (inactive).
Same read-out and setting: as for `[N-]=[N+]=NC1(N=[N+]=[N-])C(=O)NN=C(c2ccccc2)C1=O` (stereo not drawn), the figure is > 100 µM (inactive); as for `C/C(=N\N=C(/S)SCc1ccccc1)c1ccccn1`, 1.13 µM (inactive); as for `CC(C)CCC/C(CBr)=C(\Cl)CCl`, 1.82 µM (inactive).
As to `O=C(NCCN1CCOCC1)c1cn2c(ccc3sc4ccccc4c(=O)c32)n1`, in the test on BT-549, the GI50 is 27.8 µM (inactive).
Still for that read-out and setting: the value for `CC(C)C[C@H](NC(=O)[C@H](CCc1ccccc1)NC(=O)c1ccc2ccccc2n1)B(O)O` was < 0.01 µM (active).
Consider `CCOC(=O)C1Nc2ccccc2[C@H]2OCC[C@@H]12` (stereo partly drawn), for which the GI50 in the test with SNB-78, with HOP-18, in the test with KM-20L2, in the test on XF498, in the test with DLD-1 and in the test on M19-MEL was > 100 µM (inactive) throughout.
For `CCCCCCn1c(SC)nc(COC(=O)NC)c1COC(=O)NC`, the GI50 with BT-549 is 19.5 µM (inactive).
With `O=C1CNNC(Cn2nc(-c3ccccc3)c3ccccc3c2=O)=N1`, the GI50 with SNB-78, in the test on HOP-18, in the test on LXFL 529, in the test on DLD-1 and with M19-MEL was > 100 µM (inactive) throughout.
Consider `CC1(C)CCC[C@]2(C)[C@@H]1CC[C@@]13O[C@@H]1C1=C(CO)C(=O)OC1=C[C@@H]23`, for which the GI50 in the test with BT-549 was 22 µM (inactive).
Same read-out and setting: the value for `CCCCCCCCCCCCC(O)C1CCC(C(O)CCCCCCC(O)CCCCCCCC2=CC(C)OC2=O)O1` (stereo not drawn) was 8.87 µM (inactive).
In the case of `Cc1ccc(NC(=O)/C(C#N)=C/c2ccccc2)c(C)c1`, the GI50 in the test on SNB-78, with HOP-18, in the test with LXFL 529, in the test with KM-20L2, in the test with XF498 and in the test on DLD-1 was > 100 µM (inactive) each time. The GI50 in the test with M19-MEL is > 100 µM (inactive).
On to `Nc1cc(OCC2CCCCC2)nc(N)n1`, for which the GI50 in the test on BT-549 is > 100 µM (inactive).
In the case of `O=C(CNc1ccc(Cl)cc1Cl)NC1C=Cc2ccc(S(=O)(=O)Nc3ccc(Cl)cc3Cl)cc2C1=O` (stereo not drawn), the GI50 in the test on BT-549 was > 100 µM (inactive).
On the same count and under the same terms, as for `O=Cc1ccc2[nH]c(=O)oc2c1`, the figure is > 100 µM (inactive).
Same read-out and setting: as for `COC(=O)[C@@]1(C)CCC[C@]2(C(=O)O)C3Cc4occc4[C@H](C)[C@@H]3CCC21` (stereo partly drawn), the figure is 91.6 µM (inactive).
The same measure, in the same setting: the value for `CCn1c2ccccc2c2ccc(C3C(C(=O)OC)=C(C)NC(C)=C3C(=O)OC)cc21` was 49.3 µM (inactive); that for `COC(=O)CNC(=O)Nc1cc(N2C(=O)ON3C2C(C)(C)N(O)C3(C)C)ccc1C` (stereo not drawn) was > 100 µM (inactive); that for `CCOc1cnc(C(O)(c2ccccc2)c2ccccc2)o1` was > 100 µM (inactive).
Turning to `COC(=O)C1=C(O)C(O)=C(C(=O)OC)C1`, the GI50 in the test with SNB-78, in the test on HOP-18, in the test with LXFL 529, in the test with KM-20L2, with DLD-1 and with M19-MEL was > 100 µM (inactive) in each case.
As to `CC(C)=CCNc1ncnc2c1ncn2CCC#N`, the GI50 in the test on BT-549 was > 100 µM (inactive).
For `CCCCCCCC/C=C\CCCCCCCC(=O)NCCN(CCN)C(=O)CCCCCCC/C=C\CCCCCCCC`, the GI50 with HOP-18, in the test with LXFL 529, in the test with KM-20L2, with DLD-1 and in the test on M19-MEL was > 100 µM (inactive) each time.
On to `O=C(CSc1c2ccccc2nc2ccccc12)Nc1ccccc1-c1ccccc1NC(=O)CSc1c2ccccc2nc2ccccc12`, for which the GI50 in the test on SNB-78 is 27.6 µM (inactive); with HOP-18, 79.1 µM (inactive); in the test with LXFL 529, 9.46 µM (inactive); in the test on KM-20L2, 31.3 µM (inactive); with XF498, 19.1 µM (inactive); with DLD-1, 13.9 µM (inactive). In addition, the GI50 in the test on M19-MEL is 23.1 µM (inactive).
Turning to `CN1CCN(CCCN)CC1`, the GI50 in the test on BT-549 was > 100 µM (inactive).
`COc1ccccc1NC(=O)c1nc2ccc([N+](=O)[O-])cc2nc1C`: the GI50 in the test with HOP-18 was 0.238 µM (active); with LXFL 529, > 100 µM (inactive); in the test on KM-20L2 it was > 100 µM (inactive); in the test with XF498, 21 µM (inactive); with DLD-1 it was > 100 µM (inactive); with M19-MEL, > 100 µM (inactive).
With `CC(=O)OCC(=O)O[C@@H]1[C@H]2[C@@H](OC(=O)c3ccccc3)[C@@H](C)C[C@]2(O)[C@H](OC(C)=O)[C@@]2(C)C(OC(C)=O)[C@]1(OC(C)=O)C[C@H]1C(=O)C(C)(C)C[C@@H]12` (stereo partly drawn), in the test with BT-549, the GI50 was > 35 µM (inactive).
Same read-out and setting: the value for `COc1ccccc1NC(=O)C(C#N)=C(SC)SC` was > 100 µM (inactive); that for `Cn1c(N)c(/C=C/C(=O)Oc2ccccc2)c(=O)n(C)c1=O` was > 100 µM (inactive); that for `O=C(CCc1cccc(O)c1)NCCc1cccc(OCc2ccccc2)c1` was 16.1 µM (inactive).
Regarding `CCCCCCCCCCC/C(=N/O)c1ccc(O)c2ncccc12`, the GI50 was 4.55 µM (inactive) in the test with SNB-78; 3.36 µM (inactive) with HOP-18; 2.23 µM (inactive) in the test with LXFL 529; 3.85 µM (inactive) in the test with KM-20L2; 2.75 µM (inactive) in the test on DLD-1; 2.11 µM (inactive) in the test on M19-MEL.
For `CC[C@@]1(O)C[C@H](OC2CC(N(C)C)C(OC3CC(O)C(OC4CCC(=O)C(C)O4)C(C)O3)C(C)O2)c2c(cc3c(c2O)C(=O)c2c(O)ccc(O)c2C3=O)[C@H]1C(=O)OC` (stereo partly drawn), the GI50 with HOP-18 is 0.0128 µM (active); in the test with DLD-1 it was < 1e-05 µM (active); with BT-549, 0.00113 µM (active).
With `O=Cc1ccc2ccocc1-2`, the GI50 with BT-549 is > 100 µM (inactive).
Still for that read-out and setting: as for `CCSCCCC(=O)O`, the figure is > 100 µM (inactive); as for `CCOC(=O)c1ccc2nc(-c3ccc(S(=O)(=O)F)cc3)cc(O)c2c1`, 37.8 µM (inactive); as for `COC(=O)c1cc2/c(=N/O)c3ccccc3sc2o1`, > 100 µM (inactive).
Turning to `O=C(O)CCSCCCN1C(=O)c2ccccc2C1=O`, the GI50 in the test on SNB-78, with LXFL 529, in the test on KM-20L2 and in the test with M19-MEL was > 100 µM (inactive) in each case.
On to `C/C(=N\NC(=S)N1CCN(C)CC1)c1nc2cccnc2[nH]1`, for which the GI50 in the test with BT-549 is 22.4 µM (inactive).
`O=C(Nc1cc(Cl)c(Cl)cc1Cl)C(=O)C(C(=O)c1ccc2ccccc2c1)C1OC(=O)c2ccccc21` (stereo not drawn): the GI50 in the test on SNB-78 was 8.43 µM (inactive); in the test on LXFL 529, 10.6 µM (inactive); with DLD-1 it was 14.4 µM (inactive); with M19-MEL, 13.6 µM (inactive).
For `O=C(O)CNn1c(SCC(=O)O)nnc(/C=C/c2c(O)ccc3ccccc23)c1=O`, the GI50 in the test with BT-549 is 15 µM (inactive).
Still for that read-out and setting: as for `COc1ccc(-c2c(N)n(-c3cccc(C(=O)O)c3)c(=O)c3cc([N+](=O)[O-])ccc23)cc1`, the figure is > 100 µM (inactive).
Consider `N=C(N)c1ccc(-c2ccc(-c3ccc(C(=N)N)cc3)o2)cc1` [FURAMIDINE HYDROCHLORIDE], for which the GI50 in the test on BT-549 is 37.5 µM (inactive).

(Values after ChEMBL document CHEMBL1201862, “PubChem BioAssay data set” (2004).)
